Results on 14 compounds are retold here after patent US6887896B1, “7-[(7-Alkoxy)-chrom-3-en-6-yl]-heptatrienoic acid and 7-[(3-alkoxy)-5,6-dihydronaphthalen-2-yl]-heptatrienoic acid derivatives having serum glucose reducing activity” (Allergan, Inc., priority 2003, dated 2005).

Bounds are passed on as bounds.

The target in assay [1] is T1, RXRγ (UniProt P28705).
T1 sequence (P28705 1-463): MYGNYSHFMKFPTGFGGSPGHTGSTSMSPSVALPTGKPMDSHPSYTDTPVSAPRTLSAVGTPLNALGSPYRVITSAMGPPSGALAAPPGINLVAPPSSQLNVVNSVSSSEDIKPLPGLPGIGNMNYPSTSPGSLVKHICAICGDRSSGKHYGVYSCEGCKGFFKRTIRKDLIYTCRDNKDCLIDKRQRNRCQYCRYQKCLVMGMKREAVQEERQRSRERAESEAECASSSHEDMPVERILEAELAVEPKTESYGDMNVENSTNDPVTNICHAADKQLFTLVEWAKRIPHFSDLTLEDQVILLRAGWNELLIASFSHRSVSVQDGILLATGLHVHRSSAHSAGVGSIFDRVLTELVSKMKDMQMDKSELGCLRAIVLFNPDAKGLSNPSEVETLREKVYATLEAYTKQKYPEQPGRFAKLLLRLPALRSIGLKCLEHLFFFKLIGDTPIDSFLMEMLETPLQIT
Put plainly: holoreceptor transactivation assay, RXRγ. Particulars: for EC50: holoreceptor transactivation, read-out: RXR Trans. EC50 γ; for RXR Trans. efficacy (number in parentheses) γ: percentage compared to the standard compound. It counts as cell-based. An excerpt:
(§1) Specifically, one such assay is a chimeric receptor transactivation assay which tests for agonist-like activity in the R RAPE and RAR7 receptor subtypes, and which is based on work published by Feigner, P. L. and Holm, M (1989) Focus, 112 is described in detail in U.S. Pat. No. 5,455,265. The specification of U.S. Pat. No. 5,455,265 is hereby expressly incorporated by reference. A holoreceptor transactivation assay and a ligand binding assay which measure the antagonist/agonist like activity of the compounds of the invention, or their ability to bind to the several retinoid receptor subtypes, respectively, are described in published PCT Application No. WO WO93/11755 (particularly on pages 30-33 and 37-41) published on Jun. 24, 1993, the specification of which is also incorporated herein by reference. A detailed experimental procedure for holoreceptor transactivations has been described by Heyman et al. Cell 68, 397-406, (1992); Allegretto et al. J. Biol. Chem. 268, 26625-26633, and Mangelsdorf et al. The Retinoids: Biology, Chemistry and Medicine, pp 319-349, Raven Press Ltd., New York, which are expressly incorporated herein by reference. The results obtained in this assay are expressed in EC50 numbers, as they are also in the chimeric receptor transactivation assay. The results of the ligand binding assay are expressed in Ki numbers. (See Cheng et al. Biochemical Pharmacology Vol. 22 pp 3099-3108, expressly incorporated herein by reference.)
Efficacy in a transactivation assay is expressed as a percentage of the maximum potency attained by the compound compared to a standard which, in this case, is the compound named (2E,4E,1′S,2′S)-3-methyl-5-[2′-methyl-2′-(5,5,8,8-tetramethyl-5,6,7,8-tetrahydro-naphthalen-2-yl)-cyclopropyl]-penta-2,4-dienoic acid. This standard compound is described in U.S. Pat. No. 6,114,533.
The specification of this application for patent is organized in several sections in accordance with structural Formulas A through F each of which discloses a group of preferred compounds within the scope of the invention. Tables that disclose the activity of certain exemplary compounds of the invention in the above-described RXR receptor transactivation and binding assays are found in the corresponding sections. […] The transactivation data pertaining to the activation of RXR receptors were obtained in the holoreceptor assay.
(§2) Generally speaking, in the tables disclosing the results of transactivation and binding assays the numbers in parentheses indicate efficacy as a percentage compared to the standard compound, (2E,4E,1′S,2′S)-3-methyl-5-[2′-methyl-2′-(5,5,8,8-tetramethyl-5,6,7,8-tetrahydro-naphthalen-2-yl)cyclopropyl]-penta-2,4-dienoic acid and the other numbers indicate the measured EC50 and K; in nanomolar concentration.

The target in assay [2] is T2, RARγ (Homo sapiens, UniProt P13631).
T2 sequence (P13631 1-454): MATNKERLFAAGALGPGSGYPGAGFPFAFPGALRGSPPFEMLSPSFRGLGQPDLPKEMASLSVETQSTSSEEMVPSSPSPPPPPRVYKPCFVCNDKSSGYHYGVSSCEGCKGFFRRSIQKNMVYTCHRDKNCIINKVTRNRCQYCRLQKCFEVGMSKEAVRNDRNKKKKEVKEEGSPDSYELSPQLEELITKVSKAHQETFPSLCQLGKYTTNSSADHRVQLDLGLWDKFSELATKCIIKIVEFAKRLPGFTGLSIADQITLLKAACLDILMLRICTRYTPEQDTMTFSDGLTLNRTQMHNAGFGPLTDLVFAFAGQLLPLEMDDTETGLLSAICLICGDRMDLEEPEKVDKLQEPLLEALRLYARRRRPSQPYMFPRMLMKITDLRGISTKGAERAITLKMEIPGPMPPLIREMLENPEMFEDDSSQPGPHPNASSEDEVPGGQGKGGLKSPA
Put plainly: ligand binding assay, RARγ. As to conditions: for Ki: read-out: RAR Bind. Ki γ; for Kd: Table 9 (Formula F), read-out: RAR γ Kd.
Excerpt: as §1, §2

The target of assay [3] is T3, RXRβ (UniProt P28704).
T3 sequence (P28704 1-520): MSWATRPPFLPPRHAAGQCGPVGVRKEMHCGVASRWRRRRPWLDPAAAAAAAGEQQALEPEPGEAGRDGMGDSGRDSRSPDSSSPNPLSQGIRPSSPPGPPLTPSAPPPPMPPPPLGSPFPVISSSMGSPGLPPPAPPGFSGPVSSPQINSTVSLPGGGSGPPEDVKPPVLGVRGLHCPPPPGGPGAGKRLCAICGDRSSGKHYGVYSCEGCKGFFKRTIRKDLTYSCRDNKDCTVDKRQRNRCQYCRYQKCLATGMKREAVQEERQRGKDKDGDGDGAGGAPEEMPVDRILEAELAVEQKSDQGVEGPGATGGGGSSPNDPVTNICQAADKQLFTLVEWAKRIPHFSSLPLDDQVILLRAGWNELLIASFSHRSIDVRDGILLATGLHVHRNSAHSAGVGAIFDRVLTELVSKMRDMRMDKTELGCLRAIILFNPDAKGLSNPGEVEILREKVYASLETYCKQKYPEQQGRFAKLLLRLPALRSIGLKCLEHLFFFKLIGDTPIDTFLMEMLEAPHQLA
The assay can be described thus: ligand binding assay, RXRβ. Particulars: for Ki: read-out: RXR Bind Ki β; for Kd: Table 9 (Formula F), read-out: RXR β Kd.
Excerpt: as §1, §2

Take `COc1cc2c(cc1\C(C)=C(F)/C=C/C(C)=C/C(=O)O)C(C(C)(C)C)=CC(C)(C)O2` [Compound 122, 7-(4-tert-Butyl-7-methoxy-2,2-dimethyl-2H-chromen-6-yl)-6-fluoro-3-methyl-octa-2E,4E,6E-trienoic acid]: the 50% effective concentration (EC50) in assay [1] is 9 nM. The “RXR Trans. efficacy (number in parentheses) γ” value (from here on “RXR Trans. efficacy”) in assay [1] is 52%. The Ki was 3900 nM in assay [2] and 110 nM in assay [3].

Consider `CCOc1c(\C(CC)=C(F)/C=C/C(C)=C/C(=O)O)cc2c(c1Cl)OC(C)(C)C=C2C(C)C` [Compound 173], for which, in assay [1], the EC50 was determined as 6 nM and the “RXR Trans. efficacy” value was 10%. Also, the Ki in assay [2] came out at 2400 nM. The Ki in assay [3] turned out to be 36 nM.

Take `CCOc1c(\C(C)=C/C=C/C(C)=C/C(=O)O)cc2c(c1Cl)OC(C)(C)C=C2C(C)C` [Compound 50, 7-(8-Chloro-4-isopropyl-7-ethoxy-2,2-dimethyl-2H-chromen-6-yl)-3-methyl-octa-2E,4E,6Z-trienoic acid]: in assay [1], the EC50 came out at 5 nM. In addition, the “RXR Trans. efficacy” value in assay [1] was found to be 47%. Also, the Ki in assay [2] was found to be 5900 nM; in assay [3], 76 nM.

On to `CCOc1c(\C(=C/C=C/C(C)=C/C(=O)O)CC)cc2c(c1Cl)OC(C)(C)C=C2C(C)C` [Compound 51], for which, in assay [1], the EC50 was 22 nM and the “RXR Trans. efficacy” value was 13%. Also, the Ki in assay [2] came out at 4900 nM. Moreover, in assay [3], the Ki was 112 nM.

For the compound `CC(/C=C/C(F)=C(/C)c1cc2c(c(Br)c1OC(C)C)C(C)(C)CC=C2C(C)C)=C\C(=O)O` [Compound A-172, (2E,4E,6E)-7-(4-Bromo-3-isopropoxy-8-isopropyl-5,5-dimethyl-5,6-dihydro-naphthalen-2-yl)-6-fluoro-3-methyl-octa-2,4,6-trienoic acid], in assay [1], the EC50 amounted to 18 nM and the “RXR Trans. efficacy” value worked out at 12%. Besides, the Kd in assay [2] was found to be 834 nM. The Kd in assay [3] was 41 nM.

As to `CCOc1c(\C(C)=C(F)/C=C/C(C)=C/C(=O)O)cc2c(c1Cl)OC(C)(C)C=C2C(C)C` [Compound 172, 7-(8-Chloro-4-isopropyl-7-ethoxy-2,2-dimethyl-2H-chromen-6-yl)-6-fluoro-3-methyl-octa-2E,4E,6E-trienoic acid], the EC50 in assay [1] amounted to 10 nM. For the same compound, in assay [1], the “RXR Trans. efficacy” value was determined as 46%. For the same compound, the Ki in assay [2] amounted to 1400 nM; in assay [3], 85 nM.

For `CCOc1c(\C(C)=C(F)/C=C/C(C)=C/C(=O)O)cc2c(c1Br)C(C)(C)CC=C2C(C)C` [Compound A-169, (2E,4E,6E)-7-(4-Bromo-3-ethoxy-8-isopropyl-5,5-dimethyl-5,6-dihydro-naphthalen-2-yl)-6-fluoro-3-methyl-octa-2.4,6-trienoic acid], in assay [1], the EC50 was found to be 0.6 nM and the “RXR Trans. efficacy” value is on record as 71%. Moreover, the Kd in assay [2] was determined as 1000 nM. Also, the Kd in assay [3] turned out to be 16 nM.

In the case of `CCOc1c(\C(C)=C(F)/C=C/C(C)=C/C(=O)O)cc2c(c1Cl)C(C)(C)CC=C2C(C)C` [Compound A-177, (2E,4E,6E)-7-(4-Chloro-3-ethoxy-8-isopropyl-5,5-dimethyl-5,6-dihydronaphthalen-2-yl)6-fluoro-3-methyl-octa-2,4,6-trienoic acid], in assay [1], the EC50 was 0.2 nM and the “RXR Trans. efficacy” value amounted to 73%. In addition, the Kd in assay [2] stood at 1200 nM. Also, the Kd in assay [3] was 12 nM.

As for `CCOc1cc2c(cc1\C(C)=C(F)/C=C/C(C)=C/C(=O)O)C(CC)=CC(C)(C)O2` [Compound 123, 7-(7-Ethoxy-4-ethyl-2,2-dimethyl-2H-chromen-6-yl)-6-fluoro-3-methyl-octa-2E,4E,6E-trienoic acid], the EC50 in assay [1] is above 1000 nM. Also, the Ki in assay [2] and in assay [3] was above 10000 nM in each case.

For the compound `CCC1=CC(C)(C)Oc2cc(OC)c(\C(C)=C(F)/C=C/C(C)=C/C(=O)O)cc21` [Compound 120, 7-(4Ethyl-7-methoxy-2,2-dimethyl-2H-chromen-6-yl)-6-fluoro-3-methyl-octa-2E,4E,6E-trienoic acid], the 50% effective concentration (EC50) in assay [1] was above 10000 nM. Besides, the Ki was above 10000 nM in assay [2] and 2600 nM in assay [3].

Take `CCOc1cc2c(cc1\C(CC)=C(F)/C=C/C(C)=C/C(=O)O)C=CCC2(C)C` [Compound A-77]: in assay [1], the EC50 came to 41 nM and the “RXR Trans. efficacy” value is “(73) %”. In assay [3], the Ki stood at 63 nM.

For `COc1c(\C(C)=C(F)/C=C/C(C)=C/C(=O)O)cc2c(c1Cl)OC(C)(C)C=C2C(C)C` [Compound 170, 7-(8-Chloro-4-isopropyl-7-methoxy-2,2-dimethyl-2H-chromen-6-yl)-6-fluoro-3-methyl-octa-2E,4E,6E-trienoic acid], the half-maximal effective concentration (EC50) in assay [1] came out at 0.2 nM. The “RXR Trans. efficacy” value in assay [1] was determined as 109%. Also, the Ki in assay [2] is 5300 nM; in assay [3], 7 nM.

Regarding `CCOc1c(\C(C)=C(F)/C=C/C(C)=C/C(=O)O)cc2c(c1Br)C(C)(C)CC=C2C(C)(C)C` [Compound A-174, (2E,4E,6E)-7-(4-Bromo-8-tert-butyl-3-ethoxy-5,5-dimethyl-5,6-dihydro-naphthalen-2-yl)-6-fluoro-3-methyl-octa-2,4,6-trienoic acid], in assay [1], the EC50 worked out at 2 nM and the “RXR Trans. efficacy” value is 12%. Moreover, the Kd in assay [2] came to 1600 nM. For the same compound, the dissociation constant Kd in assay [3] turned out to be 12 nM.

On to `CC(/C=C/C(F)=C(/C)c1cc2c(c(Cl)c1OC(C)C)OC(C)(C)C=C2C(C)C)=C\C(=O)O` [Compound 174], for which, in assay [1], the EC50 came out at 114 nM and the “RXR Trans. efficacy” value worked out at 6%. For the same compound, in assay [2], the Ki was found to be 3400 nM. Also, in assay [3], the Ki was determined as 319 nM.
